Experimental data taken from patent US20060287383A1, “Substance exhibiting antidepressant property” (priority 2003, published 2006).

Key:
[1] = system: patients having depressive illnesses; test: clinical study, Hamilton rating scale for depressive illness; type: in vivo, human
Method: The Hamilton rating scale for primary depressive illness (Hamilton M. Development of a rating scale for primary depressive illness//Br J Soc Clin Psychol. 1967 December;6(4):278-96) is one of the most widely used scales for assessing depression in the clinical practice.
The material for clinical studies has comprised two homogenous groups of patients having depressive illnesses (40 persons) aged 20-42, out of which 20 patients have taken amitriptyline in the daily dose of 75 mg (25 mg three times a day), and 20 patients have taken phenotropyl in the daily dose of 100 mg as a single dose in the morning time. For a comparative study of the medications antidepressant activity the patients have been enlisted for the study according to the following criteria: the informed consent is available, a light or moderate depressive episode (F32.0 ? F32.1 according to MCB-10) is present, the total score under the Hamilton rating scale is not lower than 18, no contraindications to taking amitriptyline and phenotropyl. The patients have been relatively uniformly assigned to the said groups according to meaningful factors, such as sex and age, time for which the condition exists and syndrome characteristics. The condition existence time varied from 1 to 2 years. The therapy efficiency has been assessed on the basis of a degree of reduction of the total score under the Hamilton scale, namely: full effect—reduction by more than 50%; partial reduction—from 25 to 50%; no effect—reduction by less than 25%. The condition of the patients has been assessed during the background studies and at each 7th day of the therapy for the whole 6 weeks of the therapy. In total, seven examinations have been carried out. The comparative data on the general efficiency pf the medications, as given in Table 5, evidence a rather quick reduction of the depressive illness psychopathological symptoms in the process of administering phenotropyl and amitriptyline. However, the antidepressant effect of phenotropyl has been more pronounced on the 7th and 14th days of the therapy. The full reduction has been attained in 25% and 40% of the patients, respectively. […] From the 28th day of the therapy the number of the patients experiencing the maximum effect has not been changed either on the 35th or the 42nd days of the therapy. Out of 20% of the patients experiencing a partial reduction of the depressive symptoms, 15% have been patients with the reduction from 25% to 50%, and 5%—patients with the reduction by less than 25%.

white outbred male rats = test: involuntary swimming in a reservoir with freely moving wheels according to Nomura; type: in vivo
Method: The method of involuntary swimming in a reservoir with freely moving wheels (Nomura S., Shimizu J., Kinjo M. et al. A new behavioral test for antidepressant drugs//Eur. J. Pharmacol.—1982.—v. 83.—N 34.—p. 171-175) is widely used for assessing the action of antidepressant agents. The installation is a reservoir having dimensions of 64×30×42 cm and divided into four equal sections where wheels are located. The reservoir is filled with water at the temperature of 25° C., coming to the medium line of the wheels. The studies have been conducted with white outbred male rats having the weight from 230 to 250 grams. The rats have been put into each section in the position where their heads are opposite to the wheels, and then the wheel speed has been recorded for 10 minutes with the use of electromechanical counters. The number of wheel revolutions made by the rat for 10 minutes is recorded.
This study has been conducted with animals from different groups. The rats from the experimental groups have received single doses of phenotropyl in the amounts of 25, 50 and 100 mg/kg or the standard amitriptyline medication in the amount of 10 mg/kg (ampoule solution made by Spofa, the Czech Republic) in the volume corresponding to the dosage. The animals from the control group have received distilled water in the same dosage. All the substances have been given intragastrically 40 minutes before the an experiment.

## NC(=O)CN1CC(c2ccccc2)CC1=O (centres unmarked) [Phenotropyl, N-carbamoyl-methyl-4-phenyl-2-pyrrolidone]
[1]; 100 mg daily, 6 weeks of therapy
  sedative and cholinergic effects: no cases of sedative and cholinergic effects have been recorded
[1]; 100 mg daily, 21st and 28th days of the therapy
  time at which full reduction is attained in 70% and 80% of the patients, compared with amitriptyline: two weeks earlier than for the amitriptyline therapy
[1]; 7th therapy day, 100 mg daily
  patients (%) with reduction of total Hamilton score 25-49: 25%
  patients (%) with reduction of total Hamilton score <25: 75%
  patients (%) with reduction of total Hamilton score ≧50: 0%
  patients (n) with reduction of total Hamilton score 25-49: 5
  patients (n) with reduction of total Hamilton score <25: 15
  patients (n) with reduction of total Hamilton score ≧50: 0
[1]; 7th therapy day, 100 mg daily, listed as phenotropyl
  patients (%) with reduction of total Hamilton score ≧50: 25%
[1]; 14th therapy day, 100 mg daily
  patients (%) with reduction of total Hamilton score 25-49: 30%
  patients (%) with reduction of total Hamilton score <25: 30%
  patients (%) with reduction of total Hamilton score ≧50: 40%
  patients (n) with reduction of total Hamilton score 25-49: 6
  patients (n) with reduction of total Hamilton score <25: 6
  patients (n) with reduction of total Hamilton score ≧50: 8
[1]; 21st therapy day, 100 mg daily
  patients (%) with reduction of total Hamilton score 25-49: 10%
  patients (%) with reduction of total Hamilton score <25: 20%
  patients (%) with reduction of total Hamilton score ≧50: 70%
  patients (n) with reduction of total Hamilton score 25-49: 2
  patients (n) with reduction of total Hamilton score <25: 4
  patients (n) with reduction of total Hamilton score ≧50: 14
[1]; 28th therapy day, 100 mg daily
  patients (%) with reduction of total Hamilton score 25-49: 15%
  patients (%) with reduction of total Hamilton score <25: 5%
  patients (%) with reduction of total Hamilton score ≧50: 80%
  patients (n) with reduction of total Hamilton score 25-49: 3
  patients (n) with reduction of total Hamilton score <25: 1
  patients (n) with reduction of total Hamilton score ≧50: 16
[1]; 35th therapy day, 100 mg daily
  patients (%) with reduction of total Hamilton score 25-49: 15%
  patients (%) with reduction of total Hamilton score <25: 5%
  patients (%) with reduction of total Hamilton score ≧50: 80%
  patients (n) with reduction of total Hamilton score 25-49: 3
  patients (n) with reduction of total Hamilton score <25: 1
  patients (n) with reduction of total Hamilton score ≧50: 16
[1]; 42nd therapy day, 100 mg daily
  patients (%) with reduction of total Hamilton score 25-49: 15%
  patients (%) with reduction of total Hamilton score <25: 5%
  patients (%) with reduction of total Hamilton score ≧50: 80%
  patients (n) with reduction of total Hamilton score 25-49: 3
  patients (n) with reduction of total Hamilton score <25: 1
  patients (n) with reduction of total Hamilton score ≧50: 16
[1]; course administration
  tolerance and withdrawal syndrome: does not induce tolerance and the withdrawal syndrome
White outbred male rats; single dose 25 mg/kg intragastrically 40 minutes before
  Number of wheel revolutions for 10 minutes: 89.3 ± 17.2
White outbred male rats; single dose 50 mg/kg intragastrically 40 minutes before
  Number of wheel revolutions for 10 minutes: 102.7 ± 16.1
White outbred male rats; single dose 100 mg/kg intragastrically 40 minutes before, 100 mg/kg
  Number of wheel revolutions for 10 minutes: 121.8 ± 23.7
White outbred male rats; single dose 100 mg/kg intragastrically 40 minutes before, listed as phenotropyl, 100 mg/kg
  Number of wheel revolutions for 10 minutes: 121.8±23.7
